Experimental data published in ChEMBL document CHEMBL1201862, “PubChem BioAssay data set” (2004).
Calls of active or inactive are those of the source.

Tests used:
Genome polyprotein = Genome polyprotein (dengue virus type 2, UniProt P29990); test: Dengue-2 NS5 methyltransferase inhibitors, primary screen, biochemical, confirmation dose response (AID 588689); assay type: functional
[1] = inhibitors of firefly luciferase expression or activity, dose response, H4 neuroglioma cells, luminescence (AID 1990); assay type: functional, cell-based
[2] = inhibitors of SNCA 5'UTR-driven reporter translation, confirmation, H4 neuroglioma cells, luminescence (AID 1988); assay type: functional, cell-based
[3] = Luminescence Cell-Based Dose Response HTS to Identify Inhibitors of 5'UTR Stem-Loop Driven Prion Protein mRNA Translation in H4 Neuroglioblastoma Cells. [Related pubchem assays: 1827 (Project Summary), 1813 (Primary HTS)]; assay type: functional
[4] = target: T1, Carboxy-terminal domain RNA polymerase II polypeptide A small phosphatase 1 (Homo sapiens, UniProt Q9GZU7); test: inhibitors of CTDSP1, concentration-response testing, biochemical assay, absorbance-based, actives from ultra-high-throughput screening (AID 540297); assay type: functional
T1 sequence (Q9GZU7 whole entry): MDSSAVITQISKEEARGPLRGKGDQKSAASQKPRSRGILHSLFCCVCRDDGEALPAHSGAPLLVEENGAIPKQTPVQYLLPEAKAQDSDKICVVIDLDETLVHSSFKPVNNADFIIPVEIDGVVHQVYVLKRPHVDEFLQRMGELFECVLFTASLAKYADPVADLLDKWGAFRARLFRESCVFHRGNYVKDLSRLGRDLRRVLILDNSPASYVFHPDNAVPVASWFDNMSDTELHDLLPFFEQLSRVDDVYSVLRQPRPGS

Protein skinhead-1 = target: T2, Protein skinhead-1 (Caenorhabditis elegans, UniProt P34707); assay type: functional
T2 sequence (P34707 whole entry): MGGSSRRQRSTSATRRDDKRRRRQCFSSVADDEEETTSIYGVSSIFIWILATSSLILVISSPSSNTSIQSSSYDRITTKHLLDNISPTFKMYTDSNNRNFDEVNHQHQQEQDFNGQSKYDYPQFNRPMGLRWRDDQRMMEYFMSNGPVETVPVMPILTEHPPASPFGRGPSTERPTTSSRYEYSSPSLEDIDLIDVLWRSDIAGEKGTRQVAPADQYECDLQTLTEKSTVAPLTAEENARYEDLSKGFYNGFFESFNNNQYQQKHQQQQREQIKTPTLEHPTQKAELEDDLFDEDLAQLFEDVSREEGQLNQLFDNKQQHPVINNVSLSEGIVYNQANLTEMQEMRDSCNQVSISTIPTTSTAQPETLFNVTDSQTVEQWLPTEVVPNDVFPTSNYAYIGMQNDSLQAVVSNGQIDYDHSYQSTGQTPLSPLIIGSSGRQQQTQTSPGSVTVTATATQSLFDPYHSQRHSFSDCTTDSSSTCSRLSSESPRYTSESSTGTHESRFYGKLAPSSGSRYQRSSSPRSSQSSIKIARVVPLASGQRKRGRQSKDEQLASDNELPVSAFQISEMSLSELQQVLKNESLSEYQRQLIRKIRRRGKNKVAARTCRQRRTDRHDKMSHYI

[5] = target: T3, Replicative DNA helicase DnaB (Mycobacterium tuberculosis, UniProt P9WMR3); test: DnaB intein splicing inhibitors, dose response, biochemical, cell-free fluorescence (AID 449749); assay type: functional
T3 sequence (P9WMR3 whole entry): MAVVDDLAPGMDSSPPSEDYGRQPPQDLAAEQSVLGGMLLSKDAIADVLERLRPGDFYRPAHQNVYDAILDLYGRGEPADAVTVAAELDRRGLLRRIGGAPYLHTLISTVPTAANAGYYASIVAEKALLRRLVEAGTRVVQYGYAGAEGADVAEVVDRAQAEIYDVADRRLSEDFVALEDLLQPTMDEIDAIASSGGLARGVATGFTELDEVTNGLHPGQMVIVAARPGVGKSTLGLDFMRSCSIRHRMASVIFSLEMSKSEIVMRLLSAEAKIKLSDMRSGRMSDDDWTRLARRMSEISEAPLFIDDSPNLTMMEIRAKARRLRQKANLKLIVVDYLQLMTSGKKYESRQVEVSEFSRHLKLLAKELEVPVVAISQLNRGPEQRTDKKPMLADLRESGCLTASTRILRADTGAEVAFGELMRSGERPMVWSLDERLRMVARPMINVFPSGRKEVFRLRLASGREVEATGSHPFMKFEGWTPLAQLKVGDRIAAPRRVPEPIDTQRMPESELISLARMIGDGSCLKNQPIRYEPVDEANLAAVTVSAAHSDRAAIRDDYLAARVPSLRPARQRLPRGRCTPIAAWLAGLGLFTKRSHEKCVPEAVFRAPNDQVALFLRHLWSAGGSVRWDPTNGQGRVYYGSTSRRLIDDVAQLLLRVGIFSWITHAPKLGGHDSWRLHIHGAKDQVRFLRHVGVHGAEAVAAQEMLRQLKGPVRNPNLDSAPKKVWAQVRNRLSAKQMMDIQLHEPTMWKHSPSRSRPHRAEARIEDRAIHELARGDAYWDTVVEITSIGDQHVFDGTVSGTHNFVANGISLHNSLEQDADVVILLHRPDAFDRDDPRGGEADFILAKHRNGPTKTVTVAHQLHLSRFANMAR

Protein RecA = target: T4, Protein RecA (Mycobacterium tuberculosis, UniProt P9WHJ3); test: Fluorescence Cell-Free Homogeneous Dose Retest to Identify Inhibitors of RecA-Intein Splicing Activity. [Related pubchem assays (depositor defined):AID2097, AID2223, AID489010, AID492950]; assay type: functional
T4 sequence (P9WHJ3 whole entry): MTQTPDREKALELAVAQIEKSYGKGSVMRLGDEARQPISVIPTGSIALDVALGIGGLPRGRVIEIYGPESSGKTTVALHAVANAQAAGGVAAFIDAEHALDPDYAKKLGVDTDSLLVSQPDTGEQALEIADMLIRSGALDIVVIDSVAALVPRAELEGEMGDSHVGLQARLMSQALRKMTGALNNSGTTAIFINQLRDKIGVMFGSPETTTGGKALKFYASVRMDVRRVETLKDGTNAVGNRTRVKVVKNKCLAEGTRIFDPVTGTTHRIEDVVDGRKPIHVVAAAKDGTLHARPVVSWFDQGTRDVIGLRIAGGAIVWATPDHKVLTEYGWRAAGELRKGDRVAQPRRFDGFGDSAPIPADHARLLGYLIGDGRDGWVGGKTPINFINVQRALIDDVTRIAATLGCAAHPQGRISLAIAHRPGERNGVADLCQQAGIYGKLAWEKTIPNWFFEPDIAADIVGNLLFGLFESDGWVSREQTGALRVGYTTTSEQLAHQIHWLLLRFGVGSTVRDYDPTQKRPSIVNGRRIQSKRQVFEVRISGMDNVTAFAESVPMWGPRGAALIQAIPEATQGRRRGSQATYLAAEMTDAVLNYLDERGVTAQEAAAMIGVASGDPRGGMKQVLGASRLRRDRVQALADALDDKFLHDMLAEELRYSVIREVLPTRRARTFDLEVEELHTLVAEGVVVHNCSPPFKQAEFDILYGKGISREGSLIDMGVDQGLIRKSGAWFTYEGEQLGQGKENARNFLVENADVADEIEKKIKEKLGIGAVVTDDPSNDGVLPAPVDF

[6] = Luminescence Cell-Based Dose Response HTS to Identify Activators of Luciferase Translation or Activity in H4 […] Cells. [Related pubchem assays: 1829 (Project Summary), 1814 (Primary HTS)]; assay type: functional
Cytochrome P450 2D6 = Cytochrome P450 2D6 (Homo sapiens, UniProt P10635);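 note: CYP2D6 member of a cytochrome P450 panel assay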
Cytochrome P450 2C9 = Cytochrome P450 2C9 (Homo sapiens, UniProt P11712)
Cytochrome P450 1A2 = target: T5, Cytochrome P450 1A2 (Homo sapiens, UniProt P05177);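 note: PubChem cytochrome P450 panel assay, CYP1A2 panel member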
T5 sequence (P05177 whole entry): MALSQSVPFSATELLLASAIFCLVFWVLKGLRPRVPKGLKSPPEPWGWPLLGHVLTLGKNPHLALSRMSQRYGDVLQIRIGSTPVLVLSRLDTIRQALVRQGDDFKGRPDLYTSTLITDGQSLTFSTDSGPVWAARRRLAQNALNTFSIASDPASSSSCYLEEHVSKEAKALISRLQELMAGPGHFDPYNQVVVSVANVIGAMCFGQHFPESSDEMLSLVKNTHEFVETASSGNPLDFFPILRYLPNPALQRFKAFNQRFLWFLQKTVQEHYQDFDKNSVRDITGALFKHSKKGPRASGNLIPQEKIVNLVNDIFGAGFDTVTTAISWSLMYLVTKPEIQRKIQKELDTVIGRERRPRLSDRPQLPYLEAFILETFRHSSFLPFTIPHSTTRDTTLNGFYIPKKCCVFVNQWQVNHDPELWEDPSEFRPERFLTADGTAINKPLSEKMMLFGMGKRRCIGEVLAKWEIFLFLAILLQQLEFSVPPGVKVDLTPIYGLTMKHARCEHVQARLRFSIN

Cytochrome P450 3A4 = Cytochrome P450 3A4 (Homo sapiens, UniProt P08684);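 note: CYP3A4 tested as one member of a cytochrome P450 panel screen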
Cytochrome P450 3A4, sequence (P08684 whole entry): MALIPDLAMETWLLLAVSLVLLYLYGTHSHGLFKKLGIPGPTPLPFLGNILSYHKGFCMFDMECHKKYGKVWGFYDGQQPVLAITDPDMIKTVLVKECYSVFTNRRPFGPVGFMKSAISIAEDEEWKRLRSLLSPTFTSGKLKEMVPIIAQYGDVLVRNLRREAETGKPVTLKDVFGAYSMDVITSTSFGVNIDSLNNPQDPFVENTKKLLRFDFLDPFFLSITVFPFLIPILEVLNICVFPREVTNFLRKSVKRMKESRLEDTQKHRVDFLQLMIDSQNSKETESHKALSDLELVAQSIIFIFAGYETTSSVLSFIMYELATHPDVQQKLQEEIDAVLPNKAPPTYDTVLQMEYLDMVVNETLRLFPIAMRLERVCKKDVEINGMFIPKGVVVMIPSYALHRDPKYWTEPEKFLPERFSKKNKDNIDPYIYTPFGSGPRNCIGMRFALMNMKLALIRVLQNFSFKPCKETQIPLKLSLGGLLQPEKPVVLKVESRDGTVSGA

Genome polyprotein, sequence (P29990 2492-3391 limits assumed): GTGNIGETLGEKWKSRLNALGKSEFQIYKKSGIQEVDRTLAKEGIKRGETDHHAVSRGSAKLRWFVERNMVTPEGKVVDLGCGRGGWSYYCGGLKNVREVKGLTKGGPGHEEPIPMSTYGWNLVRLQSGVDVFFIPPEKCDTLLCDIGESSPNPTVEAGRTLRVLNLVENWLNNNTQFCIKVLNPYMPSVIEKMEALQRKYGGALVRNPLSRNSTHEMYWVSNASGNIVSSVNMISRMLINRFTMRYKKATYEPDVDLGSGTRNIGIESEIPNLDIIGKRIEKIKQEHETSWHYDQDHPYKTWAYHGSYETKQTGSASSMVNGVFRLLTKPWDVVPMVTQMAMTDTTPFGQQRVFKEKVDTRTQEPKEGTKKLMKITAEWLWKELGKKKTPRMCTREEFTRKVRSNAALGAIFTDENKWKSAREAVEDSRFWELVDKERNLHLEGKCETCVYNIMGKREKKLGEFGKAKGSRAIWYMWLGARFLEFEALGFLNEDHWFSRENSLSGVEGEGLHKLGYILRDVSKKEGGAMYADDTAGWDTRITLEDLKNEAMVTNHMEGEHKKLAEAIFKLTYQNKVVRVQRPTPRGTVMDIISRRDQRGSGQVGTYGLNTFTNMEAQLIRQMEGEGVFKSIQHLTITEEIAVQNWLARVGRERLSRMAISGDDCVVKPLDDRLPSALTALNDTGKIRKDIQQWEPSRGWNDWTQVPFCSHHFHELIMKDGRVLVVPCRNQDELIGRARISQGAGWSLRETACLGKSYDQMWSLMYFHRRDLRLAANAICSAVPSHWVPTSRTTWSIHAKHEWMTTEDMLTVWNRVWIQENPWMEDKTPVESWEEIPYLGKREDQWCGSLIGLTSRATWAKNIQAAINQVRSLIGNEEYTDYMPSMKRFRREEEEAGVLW
Cytochrome P450 2C9, sequence (P11712 whole entry): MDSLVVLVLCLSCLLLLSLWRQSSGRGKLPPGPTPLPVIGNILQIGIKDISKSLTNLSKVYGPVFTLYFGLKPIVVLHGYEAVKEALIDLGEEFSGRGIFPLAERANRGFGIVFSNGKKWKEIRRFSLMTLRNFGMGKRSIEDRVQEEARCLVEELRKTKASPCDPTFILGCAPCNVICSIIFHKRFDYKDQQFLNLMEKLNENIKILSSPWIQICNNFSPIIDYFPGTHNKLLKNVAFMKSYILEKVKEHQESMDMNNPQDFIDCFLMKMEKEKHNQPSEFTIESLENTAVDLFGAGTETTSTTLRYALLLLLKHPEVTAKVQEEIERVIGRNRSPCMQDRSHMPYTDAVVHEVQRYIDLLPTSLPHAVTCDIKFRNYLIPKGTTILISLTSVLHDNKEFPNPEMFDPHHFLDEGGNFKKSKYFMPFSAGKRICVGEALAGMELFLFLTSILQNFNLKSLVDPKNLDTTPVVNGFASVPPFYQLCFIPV
Cytochrome P450 2D6, sequence (P10635 whole entry): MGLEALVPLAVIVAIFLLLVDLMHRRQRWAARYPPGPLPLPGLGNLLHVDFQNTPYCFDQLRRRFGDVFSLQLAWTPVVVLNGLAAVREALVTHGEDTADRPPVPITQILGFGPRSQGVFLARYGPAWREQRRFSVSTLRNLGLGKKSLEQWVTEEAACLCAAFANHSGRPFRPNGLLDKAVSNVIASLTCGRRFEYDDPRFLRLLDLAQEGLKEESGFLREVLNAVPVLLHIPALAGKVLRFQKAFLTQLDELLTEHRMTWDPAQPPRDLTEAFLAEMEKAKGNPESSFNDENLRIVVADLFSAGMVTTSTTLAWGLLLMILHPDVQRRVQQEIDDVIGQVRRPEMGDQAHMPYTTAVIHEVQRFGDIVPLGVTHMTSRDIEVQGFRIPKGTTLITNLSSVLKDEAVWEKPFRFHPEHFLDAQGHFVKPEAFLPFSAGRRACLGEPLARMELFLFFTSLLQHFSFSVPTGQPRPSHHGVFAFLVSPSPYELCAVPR

CCc1sc(/C=C(/C#N)C(N)=S)cc1[N+](=O)[O-]
IC50 (Genome polyprotein): 33.9 µM (active)

N#Cc1cnn2c1nc(N1CCCCC1)c1ccccc12
EC50 [1]: 10.6 µM (active)
EC50 [2]: 12.7 µM (active)
EC50 [3]: 11.3 µM (active)

Clc1nc(Cl)nc(-c2cn(-c3ccccc3)c3ccccc23)n1
IC50 [4]: 7.98 µM (active)

Cc1cc(C)cc(NC(=S)N(Cc2ccc(Cl)cc2)Cc2ccc(C(=O)O)cc2)c1
IC50 (Genome polyprotein): 92.1 µM (active)

O=C(Nc1ccc(Cl)cc1Cl)c1ccc(Br)o1
IC50 (Protein skinhead-1): > 100 µM (inactive)

Cc1ccccc1NC(=O)C(=O)NNC(=O)COc1ccc2ccccc2c1
IC50 [4]: 13.1 µM (active)

O=C(/C=C/c1ccccc1)Nc1ccc(CN2CCOCC2)cc1
IC50 (Protein skinhead-1): 11.4 µM (active)

O=C1c2ccccc2OC2(C=Cc3ccccc3O2)N1Cc1ccccc1 (stereo not given)
IC50 (Protein skinhead-1): > 100 µM (inactive)
AC50 [5]: 2.83 µM (active)
EC50 (Protein RecA): 166 µM (active)

Oc1nncc(NCCc2ccccc2)c1Cl
EC50 [1]: 6.91 µM (active)
EC50 [2]: 14.2 µM (active)
EC50 [3]: 25.9 µM (active)

CCSc1nn2c(=O)c3ccccc3nc2s1
EC50 [6]: 0.23 µM (active)

COc1cc(/C=C2/C(=O)NN(c3ccc(C)c(Cl)c3)C2=O)cc([N+](=O)[O-])c1O
IC50 [4]: 6.75 µM (active)

O=C(Nc1ccccc1)c1cc2ccccc2c(=O)s1
EC50 [6]: 6.73 µM (active)

CC1CCCC(C)N1C(=O)COC(=O)/C=C/c1ccc(Br)o1 (stereo not given)
IC50 [4]: 19.1 µM (active)

O=C(c1ccc(-c2cccc(C(F)(F)F)c2)o1)N1CCOCC1
IC50 (Protein skinhead-1): > 100 µM (inactive)

O=C(CCN1C(=O)/C(=C\c2ccccc2F)SC1=S)Nc1ccc(C(=O)O)c(O)c1
IC50 (Genome polyprotein): 32.5 µM (active)
AC50 [5]: 11.4 µM (active)
EC50 (Protein RecA): 15.2 µM (active)

COc1ccc(OCCn2cc(/C=C(\C#N)C(=O)NCc3ccco3)c3ccccc32)cc1
EC50 [1]: 16.1 µM (active)
EC50 [2]: 13.3 µM (active)
EC50 [3]: 27.8 µM (active)

COc1ccc(N2CCN(C(=O)C3CCCN3S(=O)(=O)c3cccc4nsnc34)CC2)cc1 (stereo not given)
EC50 [1]: > 120 µM (not active)
EC50 [2]: > 120 µM (not active)
EC50 [3]: > 120 µM (not active)

O=C1CS/C(=C\[N+](=O)[O-])N1c1ccc(OC(F)(F)F)cc1
AC50 (Cytochrome P450 2D6): 15.8 µM (inconclusive)
AC50 [5]: 219 µM (active)
AC50 (Cytochrome P450 2C9): 15.8 µM (inconclusive)
AC50 (Cytochrome P450 1A2): 6.31 µM (inconclusive)
EC50 (Protein RecA): 10.9 µM (active)

Cc1cc(N)ccc1-n1nc2ccccc2n1
EC50 [1]: 22.4 µM (active)
EC50 [2]: 35.7 µM (active)
EC50 [3]: 36.4 µM (active)

OCCN1CCN(CC/C=C2/c3ccccc3CSc3ccccc32)CC1
EC50 [1]: > 120 µM (not active)
EC50 [2]: > 120 µM (not active)
EC50 [3]: > 120 µM (not active)

COc1ccc(N2CCN(C(S)=Nc3cc(C)cc(C)c3)CC2)cc1
AC50 (Cytochrome P450 3A4): 2.51 µM (inconclusive)
EC50 [1]: > 120 µM (not active)
EC50 [2]: > 120 µM (not active)
EC50 [3]: > 120 µM (not active)

C=C(C)c1cccc(C(C)(C)NC(=O)N2CCN(c3ncccn3)CC2)c1
IC50 (Protein skinhead-1): > 100 µM (inactive)

O=C1c2ccccc2C(=O)c2c(NCc3cccnc3)cccc21
IC50 (Protein skinhead-1): > 100 µM (inactive)

CC1(C)C(=O)Nc2ccccc2N1C(=O)COc1ccccc1C#N
IC50 [4]: 13.2 µM (active)

Cc1cc2c(SCC(=O)Nc3cccc(O)c3)ncnc2s1
IC50 [4]: 6.88 µM (active)

CC(=O)c1ccc(NC(=O)CN2C(=O)COc3ccc(S(=O)(=O)N4CCCC4)cc32)cc1
IC50 [4]: 6.65 µM (active)

CCOC(=O)C(C)C1(O)c2ccccc2-c2ncccc21 (stereo not given)
IC50 (Protein skinhead-1): > 100 µM (inactive)

Cc1ccc(C=Cc2ccccn2)cc1
IC50 (Protein skinhead-1): 33.9 µM (active)

Cn1/c(=N/C(=O)C2=NNC(=O)CC2)sc2ccccc21
EC50 [1]: > 120 µM (not active)
EC50 [2]: > 120 µM (not active)
EC50 [3]: > 120 µM (not active)

CC(O)CC(=O)O (stereo not drawn) [3-HYDROXYBUTYRIC ACID, (+/-)-]
IC50 (Protein skinhead-1): > 100 µM (inactive)
